# Article PMC6694196, “Intrinsic tryptophan fluorescence spectroscopy reliably determines galectin-ligand interactions” (Scientific Reports, 2019)
# Where “and” joins values, the source holds several entries; their conditions need not be identical. Equal entries are not always repeated. Entries after “also recorded” stand apart in the source; their conditions may differ.
# Experiments:
# galectin-3 [1] = biological target: T1, galectin-3 (Homo sapiens, UniProt P17931); experiment: Tryptophan fluorescence spectroscopy (TFS) of galectin-3-ligand interaction; format: binding; conditions: for maximum ligand binding-induced change of intrinsic fluorescence intensity: galectin-3, buffer control titration subtracted; for shift of fluorescence emission maximum to lower wavelength (blue shift): galectin-3, ligand titration; for Kd: galectin-3 10 µM, PBS, 25 °C, One site-Specific binding model
# T1 construct: full-length human galectin-3 (residues 1–250, UniProt code: P17931); His-tag (N, cleaved yes); made in house; host or cells: E. coli BL21(DE3)
# T1 sequence (P17931 whole entry, the tested form may be a part): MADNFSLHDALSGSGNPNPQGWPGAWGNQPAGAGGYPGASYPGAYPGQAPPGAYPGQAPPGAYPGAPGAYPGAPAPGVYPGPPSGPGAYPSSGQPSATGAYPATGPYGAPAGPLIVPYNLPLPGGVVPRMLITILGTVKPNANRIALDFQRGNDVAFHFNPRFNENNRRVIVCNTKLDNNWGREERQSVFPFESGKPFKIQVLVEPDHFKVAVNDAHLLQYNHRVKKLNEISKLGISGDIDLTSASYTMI
# Method: (§1) All tryptophan fluorescence spectroscopy experiments were performed using CARY Eclipse Fluorescence Spectrophotometer (Varian Inc. Santa Clara, California, USA) and a 3 ml quartz cuvette. […] The temperature was maintained constant at 25 °C by an external thermostatic water circulator. […] Control buffer titrations to galectin solutions were performed in parallel for background determination in each experiment. Data from three independent experiments were analysed using nonlinear regression with ‘One Site- Specific Binding’ model (Y = Bmax * X/(KD + X) where X is the ligand concentration, Y is the fluorescence intensity, Bmax is the maximum specific binding and KD is the equilibrium binding constant) in GraphPad Prism 7.04.
# galectin-2 [2] = biological target: T2, galectin-2 (Homo sapiens, UniProt P05162); experiment: TFS of galectin-2-ligand interaction; format: binding; conditions: for blue shift of maximum fluorescence peak: galectin-2; for maximum ligand binding-induced fluorescence intensity change: galectin-2, buffer titration subtracted; for Kd: galectin-2 20 µM, PBS, 25 °C, mean ± SEM
# T2 construct: full length human galectin-2 (residues 1–132, UniProt code: P05162); 6xHis-SUMO (N, cleaved yes); made in house; host or cells: E. coli BL21(DE3)
# T2 sequence (P05162 1-132): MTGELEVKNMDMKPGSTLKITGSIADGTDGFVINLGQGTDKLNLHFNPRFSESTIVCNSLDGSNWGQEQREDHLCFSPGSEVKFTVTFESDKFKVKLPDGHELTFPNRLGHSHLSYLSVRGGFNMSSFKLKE
# Method: as §1, with “circulator. To measure galectin-ligand interactions, recombinant galectin-2 at 20 µM, galectin-3 at 10 µM and galectin-4, -4N and -4C at 5 µM were allowed to equilibrate in PBS for 10–30 minutes under constant stirring before being titrated with testing carbohydrate ligand solutions.” for “circulator.”
# galectin-4 [3] = biological target: T3, galectin-4 (Homo sapiens, UniProt P56470); experiment: TFS of galectin-4-ligand interaction; format: binding; conditions: for blue shift of maximum fluorescence peak: galectin-4; for maximum ligand binding-induced fluorescence intensity change: galectin-4, control buffer titration deducted; for Kd: full-length galectin-4 5 µM, PBS, 25 °C
# T3 construct: 6xHis-SUMO (N, cleaved yes); made in house; host or cells: E. coli BL21(DE3)
# T3 sequence (P56470 1-323): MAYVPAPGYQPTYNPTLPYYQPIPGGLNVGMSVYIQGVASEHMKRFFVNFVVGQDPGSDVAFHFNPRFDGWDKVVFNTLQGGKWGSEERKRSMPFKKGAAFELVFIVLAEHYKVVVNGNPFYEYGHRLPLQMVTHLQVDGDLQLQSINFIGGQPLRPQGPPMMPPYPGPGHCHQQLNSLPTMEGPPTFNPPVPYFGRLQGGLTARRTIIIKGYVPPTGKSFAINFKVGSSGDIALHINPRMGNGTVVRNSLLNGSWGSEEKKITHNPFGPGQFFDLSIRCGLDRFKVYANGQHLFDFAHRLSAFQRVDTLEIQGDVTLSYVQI
# Method: as §1, with “circulator. To measure galectin-ligand interactions, recombinant galectin-2 at 20 µM, galectin-3 at 10 µM and galectin-4, -4N and -4C at 5 µM were allowed to equilibrate in PBS for 10–30 minutes under constant stirring before being titrated with testing carbohydrate ligand solutions.” for “circulator.”
# galectin-2 [4] = biological target: galectin-2; design: method as in PMID 12223272; conditions: frontal affinity chromatography, read-out: binding affinity; cited from earlier work
# galectin-4 [5] = biological target: galectin-4; design: method as in PMID 15546874; conditions: SPR, read-out: binding affinity; cited from earlier work
# galectin-3 [6] = biological target: T1, galectin-3; experiment: Isothermal titration calorimetry (ITC) of galectin-3-ligand interaction; format: binding; conditions: for Kd: galectin-3 100 µM, PBS, 25 °C
# Method: ITC experiments were performed at 25 °C using a MicroCal iTC200 microcalorimeter (Malvern Analytical Ltd, Malvern, UK) with 200 µl cell capacity and 40 µl injection syringe volume. […] Ligand-to-buffer and buffer-to-galectin titrations were performed as controls. Ligands were titrated in 19 injections of 2 µl aliquots with 120 s spacing between injections to allow baseline recovery. The ITC titration data were analysed using MicroCal Data Analysis for iTC200 which is an Origin 7.0-based software programme.
# galectin-2 [7] = biological target: T2, galectin-2; experiment: ITC of galectin-2-ligand interaction; format: binding; conditions: for binding by ITC (in words): 200 mM galactose
# Method: (§2) ITC experiments were performed at 25 °C using a MicroCal iTC200 microcalorimeter (Malvern Analytical Ltd, Malvern, UK) with 200 µl cell capacity and 40 µl injection syringe volume. All galectins were used at 100 µM in PBS and the binding ligands were prepared in identical buffers. […] F3 was titrated into galectin-3 at concentration of 20 mM. Ligand-to-buffer and buffer-to-galectin titrations were performed as controls. Ligands were titrated in 19 injections of 2 µl aliquots with 120 s spacing between injections to allow baseline recovery. The ITC titration data were analysed using MicroCal Data Analysis for iTC200 which is an Origin 7.0-based software programme. A curve fit using the ‘One set of sites’ interaction model was used to determine the association constant (KA), stoichiometry of binding (N) and enthalpy change (∆H) for all the interactions of simple sugars with the galectins except F3, where a logistic fit was used due to the nature of F3 as a mixture of heterogeneous polysaccharides.
# galectin-4 [8] = biological target: T3, galectin-4; experiment: ITC of galectin-4-ligand interaction; format: binding; conditions: for binding by ITC (in words): galectin-4 100 µM, 200 mM galactose
# Method: as §2
# [9] = biological target: T4, galectin-4N (residues 1–152) (Homo sapiens, UniProt P56470); experiment: TFS of galectin-4N-ligand interaction; format: binding; conditions: galectin-4N 5 µM, PBS, 25 °C
# T4 construct: N-terminal galectin-4 (galectin-4N, residues 1–152); His-tag (pET47b, HRV3C-cleavable) (cleaved yes); made in house; host or cells: E. coli BL21(DE3)
# T4 sequence (P56470 1-152): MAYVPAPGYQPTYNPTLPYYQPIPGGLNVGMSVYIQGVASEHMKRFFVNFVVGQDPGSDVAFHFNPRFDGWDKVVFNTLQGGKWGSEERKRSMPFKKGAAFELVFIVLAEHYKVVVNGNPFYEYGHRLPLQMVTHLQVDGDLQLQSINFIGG
# Method: as §1, with “circulator. To measure galectin-ligand interactions, recombinant galectin-2 at 20 µM, galectin-3 at 10 µM and galectin-4, -4N and -4C at 5 µM were allowed to equilibrate in PBS for 10–30 minutes under constant stirring before being titrated with testing carbohydrate ligand solutions.” for “circulator.”
# [10] = biological target: T5, galectin-4C (residues 153–323) (Homo sapiens, UniProt P56470); experiment: TFS of galectin-4C-ligand interaction; format: binding; conditions: galectin-4C 5 µM, PBS, 25 °C
# T5 construct: His-tag (pET47b, HRV3C-cleavable) (cleaved yes); made in house; host or cells: E. coli BL21(DE3)
# T5 sequence (P56470 153-323): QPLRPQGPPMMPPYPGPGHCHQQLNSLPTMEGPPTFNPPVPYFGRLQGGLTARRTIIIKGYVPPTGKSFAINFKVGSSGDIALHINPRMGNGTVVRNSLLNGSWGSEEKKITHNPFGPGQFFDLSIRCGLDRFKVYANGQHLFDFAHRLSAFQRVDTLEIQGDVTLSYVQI
# Method: as §1, with “circulator. To measure galectin-ligand interactions, recombinant galectin-2 at 20 µM, galectin-3 at 10 µM and galectin-4, -4N and -4C at 5 µM were allowed to equilibrate in PBS for 10–30 minutes under constant stirring before being titrated with testing carbohydrate ligand solutions.” for “circulator.”
# [11] = biological target: T5, galectin-4C (residues 153–323); experiment: ITC of galectin-4C-ligand interaction; format: binding; conditions: for binding by ITC (in words): galectin-4C 100 µM
# Method: as §2
# galectin-4C = test system: galectin-4C; design: method as in PMID 15464951, PMID 26077389; conditions: fluorescence anisotropy, LacNAc vs lactose; cited from earlier work
# [12] = biological target: T4, galectin-4N (residues 1–152); experiment: ITC of galectin-4N-ligand interaction; format: binding; conditions: galectin-4N 100 µM, 200 mM galactose
# Method: as §2
compound,measurement,setting,value
α-lactose,maximum ligand binding-induced change of intrinsic fluorescence intensity,galectin-3 [1],21 units
same,shift of fluorescence emission maximum to lower wavelength (blue shift),galectin-3 [1],9–10 nm
same,blue shift of maximum fluorescence peak,galectin-2 [2],7 nm
same,maximum ligand binding-induced fluorescence intensity change,galectin-2 [2],59 units
same,blue shift of maximum fluorescence peak,galectin-4 [3],10 nm
same,maximum ligand binding-induced fluorescence intensity change,galectin-4 [3],49 units
same,Kd,galectin-2 [4],1.1 mM
same,Kd,galectin-4 [5],0.86 mM
"CC(=O)N[C@H]1C(O)O[C@H](CO)[C@@H](O[C@@H]2O[C@H](CO)[C@H](O)[C@H](O)[C@H]2O)[C@@H]1O (stereo partly drawn) [LacNAc, N-Acetyl-D-lactosamine]",Kd,"galectin-3 [1]; mean ± SEM, n=3",0.0279 ± 0.0046 mM
same,maximum ligand binding-induced change of intrinsic fluorescence intensity,galectin-3 [1],26 units
same,shift of fluorescence emission maximum to lower wavelength (blue shift),galectin-3 [1],9–10 nm
same,enthalpy ∆H of binding,galectin-3 [6]; galectin-3,-16.5 kcal/mol
same,Kd,"galectin-3 [6]; One set of sites model, mean ± SEM, n=3",0.024 ± 0.0036 mM
same,difference in enthalpy change to lactose,"galectin-3 [6]; galectin-3, LacNAc vs lactose",4.4 kcal/mol
same,fold stronger binding than lactose,"galectin-3 [6]; galectin-3, LacNAc vs lactose",~ 4 fold
same,difference in binding enthalpy to galactose,"galectin-3 [6]; galectin-3, weakest ligand galactose to strongest ligand LacNAc",6.1 kcal/mol
same,blue shift of maximum fluorescence peak,galectin-2 [2],10 nm
same,Kd,"galectin-2 [2]; n=3, read-out: KD",0.654 ± 0.155 mM
same,maximum ligand binding-induced fluorescence intensity change,galectin-2 [2],52 units
same,Kd,"galectin-2 [7]; ITC, galectin-2 100 µM, PBS, 25 °C, mean ± SEM, n=3, read-out: KD",0.554 ± 0.108 mM
same,fold stronger binding than lactose,"galectin-2 [7]; ITC, galectin-2, LacNAc vs lactose",~ 2 fold
same,Kd,galectin-4 [3]; read-out: KD,9.3 ± 0.8 mM
same,blue shift of maximum fluorescence peak,galectin-4 [3],5 nm
same,maximum ligand binding-induced fluorescence intensity change,galectin-4 [3],50 units
same,Kd,"galectin-4 [8]; full-length galectin-4 100 µM, PBS, 25 °C, read-out: KD",3.5 ± 0.5 mM
same,Kd,[9],7.4 ± 0.9 mM
same,Kd,[10],12.1 ± 0.7 mM
same,binding by ITC (in words),[11],very too weak and mostly beyond detection
same,fold weaker binding than lactose,galectin-4C,at least 11 fold
"O=C[C@H](O)[C@@H](O)[C@@H](O)[C@H](O)CO [galactose, D-galactose]",Kd,galectin-3 [1],4.7 mM and ~5 mM
same,maximum ligand binding-induced change of intrinsic fluorescence intensity,galectin-3 [1],28 units
same,shift of fluorescence emission maximum to lower wavelength (blue shift),galectin-3 [1],9–10 nm
same,Kd,galectin-3 [6]; One set of sites model (F3: logistic fit),3.1 ± 1.1 mM
same,Kd,"galectin-2 [2]; KD, n=3",35.6 mM and 30 to 40 mM
same,blue shift of maximum fluorescence peak,galectin-2 [2],6 nm
same,maximum ligand binding-induced fluorescence intensity change,galectin-2 [2],57 units
same,Kd,galectin-2 [7],> 1 mM
same,binding by ITC (in words),"galectin-2 [7]; ITC, galectin-2 100 µM",too weak to be determined
same,binding by ITC (in words),"galectin-2 [7]; ITC, galectin-2 100 µM, listed as Galactose",too weak to be reliably determined
same,Kd,galectin-4 [3]; KD,33.6 mM and 30 to 40 mM
same,blue shift of maximum fluorescence peak,galectin-4 [3],4 nm
same,maximum ligand binding-induced fluorescence intensity change,galectin-4 [3],80 units
same,binding by ITC (in words),galectin-4 [8],too weak to be determined
same,binding by ITC (in words),galectin-4 [8]; listed as Galactose,too weak to be reliably determined
same,Kd,"galectin-4 [8]; galectin-4, Fig. 5I, read-out: KD (class symbol in figure)",> 1 mM
same,Kd,[9],43.3 ± 5.2 mM
same,binding by ITC (in words),[12],"very little, if any, binding taking place; also recorded: very too weak and mostly beyond detection"
same,Kd,[10],33.8 ± 3 mM
same,binding by ITC (in words),[11],very too weak and mostly beyond detection
same,Kd,"[11]; galectin-4C, Fig. 7G,I, read-out: KD (class symbol in figure)",> 1 mM
